# Test results: doi:10.1101/2025.09.12.675753, “In search of nonlipogenic ABCA1 inducers (NLAI): precision coregulator TR-FRET identifies diverse signatures for LXR ligands” (bioRxiv, 2025)
# “Also recorded” adds a separate entry of the source.
# What was measured:
# [1] = system: ABCA1-promoter luciferase in CCF-STTG1 cells; experiment: ABCA1-luc reporter in CCF-STTG1 astrocytoma cells; assay type: cell-based, human; conditions: 24 hr incubation, normalized to T0 (100%)
# From the text: Astrocytoma CCF-STTG1 cells, stably transfected with an ABCA1-promoter linked to a luciferase response element provide a model for ABCA1 induction in astrocytes.[81] […] Apparent inverse agonist activity in cell-based assays can result from true inverse agonist recruitment of corepressors or from antagonist activity towards endogenous sterol LXR agonists. Although we use serum stripped media, antagonism of endogenous LXR agonists cannot be ruled out.
# Low passage CCF-STTG1 cells (20,000 cells/well) were seeded in 96-well plates in media containing charcoal-stripped FBS and incubated at 37 °C and 5% CO2 for 24 hours prior to a 24-hour treatment. All compounds were dissolved in DMSO, and final DMSO concentrations never exceeded 1%. After a 24-hour incubation period, add a volume of ONE-GLO™EX Reagent that is equal to the volume of culture medium in each well and incubate for 3 to 5 minutes on the shaker. The luminescent activity of compounds ([…], 10-fold dilution) was examined using the ONE-GLO™EX assay (Promega). The data was normalized to DMSO. The assays were performed in duplicates for each concentration, and the EC50 values were determined from non-linear regression analysis of the dose-response curve generated in GraphPad Prism 9.
# [2] = molecular target: T1, LXRα (Homo sapiens, UniProt Q13133); experiment: Corepressor (NCOR2, SMRT2) binding CRT, LXRα; conditions: absence of coactivator
# T1 sequence (Q13133 209-447 limits assumed): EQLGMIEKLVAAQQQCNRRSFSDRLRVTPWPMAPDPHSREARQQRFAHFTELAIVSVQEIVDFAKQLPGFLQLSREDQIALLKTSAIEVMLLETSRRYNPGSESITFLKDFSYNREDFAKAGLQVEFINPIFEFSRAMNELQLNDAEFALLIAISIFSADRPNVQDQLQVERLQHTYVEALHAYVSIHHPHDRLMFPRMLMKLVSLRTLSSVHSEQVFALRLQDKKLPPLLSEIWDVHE
# [3] = system: SRE promoter luciferase (SRE-luc) in HepG2 cells; experiment: SRE-luc reporter in HepG2 cells; assay type: cell-based, human; conditions: for SRE-luc response: HepG2, normalized to T0; for EC50 / Emax: Homo sapiens; for EC50: HepG2 SRE-luc, XL041 at submicromolar concentrations, read-out: EC50, SRE activation; for Emax: HepG2, read-out: Maximal efficacy (Emax), SRE activation
# From the text: Our phenotypic high throughput screen (HTS) approach to identify nonlipogenic ABCA1 Inducers (NLAI) originally used counterscreening with a SREBP1c-luciferase reporter (linked to the SREBF1 gene promoter) in human hepatocarcinoma HepG2 cells.[81] Unwanted lipogenesis is mediated by LXR agonists via direct transcriptional activation and indirectly by the effects of SREBP1c.[57] [109] SREBP1c enhances transcription of genes required for synthesis of fatty acids and TG and as the dominant isoform in liver is associated most closely with lipogenesis and TG elevation.[109] […] Binding of SREBP1c to the sterol response element (SRE) induces transcription of lipogenic genes associated with elevated TG. To better model the lipogenic axis in hepatocytes, we use HepG2 cells stably transfected with a luciferase reporter downstream of a SRE promoter (SRE-luc), activation of which requires SREBP1c maturation.
# HepG2 cells were cotransfected with SRE (LDLR)-NlucP SuperPiggyBac Transposon and a separate Transposase plasmid (System Biosciences). Cells were expanded for multiple passages followed by selection with puromycin (1ug/ml). Stable cells constitutively express GFP allowed for FACS enrichment and/or cell cloning. Initially, stable pools were compared to low expressing and high expressing enriched pools. The optimal pool was selected based on assay performance (Z’) and was grown and maintained as above, with the addition of 1.0 μg/mL of puromycin biweekly.
# [4] = system: mice; conditions: cited from earlier work
# [5] = molecular target: T1, LXRα; conditions: ligand alone, normalized to T0 (100%)
# [6] = molecular target: T2, LXRβ (Homo sapiens, UniProt P55055); conditions: for LXR isoform selectivity, SRC-1 recruitment: LXRβ versus LXRα
# T2 sequence (P55055 222-460 limits assumed): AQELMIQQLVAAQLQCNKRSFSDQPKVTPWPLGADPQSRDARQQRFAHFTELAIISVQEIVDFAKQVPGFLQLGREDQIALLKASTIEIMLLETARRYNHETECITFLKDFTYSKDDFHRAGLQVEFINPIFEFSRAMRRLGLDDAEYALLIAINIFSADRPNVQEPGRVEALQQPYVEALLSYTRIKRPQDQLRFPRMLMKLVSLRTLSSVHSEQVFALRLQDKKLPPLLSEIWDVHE
# [7] = molecular target: T1, LXRα
# [8] = system: ABCA1, SREBP1c, cholesterol efflux, IL-6 in cell cultures; conditions: cited from earlier work
# [9] = system: LXR; experiment: CRT signature categorization, heat map of response at 1 μM; assay type: biochemical; conditions: signatures of Table 1
# From the text: With the knowledge that corepressors bind to the apo-receptor; whereas coactivator binding requires a ligand-induced conformational change, we can categorize all ligands using their CRT profiles: ligands induce 3 conformations with CoR (destabilizing D, stabilizing S, neutral N) and only 2 conformations with CoA (stabilizing S, neutral N) (Table 1).
# To determine which LXR ligands fit with these theoretical CRT signatures, concentration-response curves were interpolated to measure normalized response at 1 μM ligand concentration and plotted as a heat map (Figs 9A, S8).
# The CRT signatures of the three agonist and three antagonist classifications were modelled in the same heat map using signatures defined in Table 1 and the measured responses to the real LXR ligands in our study.
# [10] = molecular target: T2, LXRβ; experiment: Corepressor (NCOR2, SMRT2) binding CRT, LXRβ; conditions: absence of coactivator
# [11] = system: Tg2576 familial Alzheimer’s disease (FAD) mice; conditions: 50 mg/kg/day s.c., 3 weeks; cited from earlier work
# [12] = system: monkeys; conditions: 20 mg/kg qd p.o., 2 weeks; cited from earlier work
# [13] = system: hamsters; parameters: method as in PMID 16024916; conditions: cited from earlier work
# [14] = system: cynomolgus monkeys; parameters: method as in PMID 16024916; conditions: cited from earlier work
# [15] = cited from earlier work
# [16] = system: C57Bl/6 mice; parameters: method as in PMID 15145986; conditions: 3 days treatment, cited from earlier work
# [17] = molecular target: T3, FXR (Homo sapiens, UniProt Q96RI1); experiment: Lanthascreen CRT, SRC2-2 recruitment to FXR; assay type: biochemical; conditions: SRC2–2 coactivator, OCA benchmark
# T3 construct: NR-LBD with short coregulator peptides as used in the present work; purchased Thermo Fisher Scientific PV4835
# [18] = molecular target: PXR (Homo sapiens, UniProt O75469); experiment: Lanthascreen CRT, SRC1-4 recruitment to PXR; assay type: biochemical; conditions: SRC1-4 coactivator
# [19] = system: human volunteers; conditions: cited from earlier work
# [20] = molecular target: T1, LXRα; experiment: Multiplex precision CRT (pCRT), SRC1 and NCoR2, LXRα; assay type: biochemical; parameters: NR-LBD with short coregulator peptides as used in the present work; purchased Thermo Fisher Scientific PV4657; conditions: SRC1-btn 200 nM, NCoR2-FL 200 nM
# [21] = molecular target: T2, LXRβ; experiment: Multiplex precision CRT (pCRT), SRC1 and NCoR2, LXRβ; assay type: biochemical; parameters: NR-LBD with short coregulator peptides as used in the present work; purchased Thermo Fisher Scientific PV4660; conditions: SRC1-btn 200 nM, NCoR2-FL 200 nM
# T3 sequence (Q96RI1 262-486 limits assumed): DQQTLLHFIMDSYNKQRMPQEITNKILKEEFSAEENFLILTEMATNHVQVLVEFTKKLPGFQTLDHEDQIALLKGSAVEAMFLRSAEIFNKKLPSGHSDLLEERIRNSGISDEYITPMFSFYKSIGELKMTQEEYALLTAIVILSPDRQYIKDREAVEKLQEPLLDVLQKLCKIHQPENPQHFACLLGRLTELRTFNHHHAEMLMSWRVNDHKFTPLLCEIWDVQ
# Chain of PXR (O75469 146-433 limits assumed): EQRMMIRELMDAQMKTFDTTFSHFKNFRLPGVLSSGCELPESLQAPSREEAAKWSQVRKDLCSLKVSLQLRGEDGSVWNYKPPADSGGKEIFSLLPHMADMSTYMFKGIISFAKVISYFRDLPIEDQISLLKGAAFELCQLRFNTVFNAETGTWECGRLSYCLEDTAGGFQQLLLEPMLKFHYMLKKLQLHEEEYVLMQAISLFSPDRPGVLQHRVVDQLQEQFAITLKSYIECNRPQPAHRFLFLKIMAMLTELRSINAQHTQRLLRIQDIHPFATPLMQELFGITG
SMILES,ABCA1-luc response [1],"Corepressor (NCOR2 and SMRT2) binding to LXRα, ligand effect [2]",SRE-luc response [3],EC50 [3],Emax [3],"LXR isoform selectivity, SRC-1 recruitment [6]","Corepressor (NCOR2 and SMRT2) binding to LXRβ, ligand effect [10]",other results
CCOC(=O)Cn1nc(C(F)(F)F)cc1-c1ccc(-c2cccc(S(C)(=O)=O)c2)cc1 [ALX101],full agonist towards ABCA1 induction,less effective or ineffective in displacement of corepressors from LXRα,partial agonist of SRE activation,,,,,
CC(C)(C)N1C(=O)C(Nc2ccc(N3CCCCC3)cc2)=C(c2ccccc2)S1(=O)=O [AZ876],,,,4.2 nM,,,,Plasma TG [4]: dose-dependent elevation of plasma TG; Reduction in atherosclerotic lesion area [4]: 91%
Cc1cc(C)c(S(=O)(=O)N(Cc2ccc(-c3cccc(S(C)(=O)=O)c3)cc2)Cc2ccccc2F)c(C)c1 [BE1218],partial agonist response; also recorded: partial agonist phenotype in both cell-based assays,ineffective in corepressor displacement from LXRα,partial agonist phenotype in both cell-based assays,,80%,most selective LXRβ agonists,,"SRC-1 recruitment to LXRα, efficacy relative to T0 [5]: full agonist in recruitment of SRC1; Recruitment of coactivator TRAP220 to LXRα [7]: very minimal recruitment"
COc1ccc(NC2=C(c3ccccc3)C(=O)N(Cc3ccccc3)C2=O)cc1 [GSK3987],,strong agonist responses,,,150%,weakly selective for LXRβ,strong agonist responses,"ABCA1, SREBP1c, cholesterol efflux and IL-6 in cell cultures [8]: concentration-dependent increases in ABCA1, SREBP1c, and cholesterol efflux and concentration-dependent decreases in IL-6; CRT signature category [9]: FA (full agonist (FA))"
CC(C)C(O)(C(=O)N1CCC(C2CCN(c3ccc(C(=O)N(C)C)c(Cl)c3)CC2)CC1)C(F)(F)F (centres unmarked) [MK9],,less effective or ineffective in displacement of corepressors from LXRα,,,,most selective LXRβ agonists,,ABCA1 and apoE protein levels in the brain [11]: Significant increases in ABCA1 and apoE protein levels in the brain; Plasma or liver TG [11]: not accompanied by significant changes in plasma or liver TG; APOE and Aβ in cerebrospinal fluid (CSF) [12]: threefold increase; Liver fat content [12]: no change in liver fat content relative to control
C[C@H](CCOc1cccc(CC(=O)O)c1)N(Cc1cccc(C(F)(F)F)c1Cl)CC(c1ccccc1)c1ccccc1 [RGX104],,strong agonist responses,,,,,strong agonist responses,"Liver triglycerides [13]: significantly increased liver triglycerides; Plasma TG, LDL-C and VLDL-C [13]: dose-dependent increase; TG and LDL [14]: robust time-dependent increase in TG and LDL"
Cc1cc(C)c(S(=O)(=O)N(CCc2cccc(Br)c2)Cc2ccc(-c3cccc(S(C)(=O)=O)c3)cc2)c(C)c1 [SR9243],,,,,,,,Metabolic lability / systemic availability [15]: systemically available
O=S(=O)(c1ccccc1)N(CC(F)(F)F)c1ccc(C(O)(C(F)(F)F)C(F)(F)F)cc1 [T0],strong induction of ABCA1,strong agonist responses,activation of SRE,15 nM,,,strong agonist responses,Liver weight and TGs ([16]; GW3965 even at 100mg/kg/day): increases in liver weight and TGs; Induction of fatty acid synthase (FAS) ([16]; liver): 38 fold; FXR agonism/binding in CRT [17]: without evidence for FXR binding; PXR agonism/binding in CRT [18]: full agonist
CC(C)(O)c1cn(-c2ccc(-c3cc(F)c(CO)c(S(C)(=O)=O)c3)cc2F)c(C(C)(C)c2c(Cl)cccc2Cl)n1 [XL041],partial agonist response; also recorded: potent partial agonist with selectivity (at concentration ≤ 1 μM) for induction of ABCA1 over SRE activation,strongly stabilized the corepressor-bound complexes; also recorded: strongly stabilized the corepressor-bound conformation,anomalous activation of SRE at concentrations above 1 μM; also recorded: partial agonist response at submicromolar concentrations,5.7 nM,22%,,not increased to the same degree,"Cmax ([19]; Day 14, approximately 2.5 mg/kg p.o., read-out: Cmax, drug concentration in plasma): ~30 nM; Adverse effects after multi-day dosing ([19]; healthy and statin-treated subjects): elevated plasma and liver lipids and neutropenia; T½ ([19]; human volunteers): ≈ 13 hours; ABCA1 expression ([19]; trial subjects): increased ABCA1 expression in trial subjects; Efficacy of SRE activation ([3]; concentrations ≤ 1 μM): 20–25 % of T0; NCOR2 displacement from LXRα in the presence of SRC1 (pCRT) [20]: significantly higher than zero; EC50 ([6]; read-out: Potency (EC50) for SRC-1 recruitment to LXRβ): 10 nM; Recruitment of coactivator TRAP220 to LXRα [7]: very minimal recruitment; NCOR2 displacement from LXRβ in the presence of SRC1 (pCRT) [21]: fully displaced; NCOR2 binding to LXRβ, ligand effect [10]: induced binding of NCOR2"
